Measurements reported in patent US5438118A, “HIV protease inhibitors” (SmithKline Beechman Corp., priority 1993, dated 1995).

What follows are compounds tested against T1, rHIV protease (Human immunodeficiency virus type 1 group M subtype B, UniProt P03366) (assay: Inhibition of hydrolysis of a peptide substrate by rHIV protease (HPLC, Dixon analysis)). Conditions: substrate Ac-Arg-Ala-Ser-Gln-Asn-Tyr-Pro-Val-Val-NH2, MENDT buffer pH 6.0, 37° C.; Ki from Dixon analysis.
T1 construct: the reaction is initiated with purified 0.01-1 mg HIV protease
Assay type: biochemical, HIV
Method: The data in the following table is representative of inhibition produced by these compounds.
A typical assay contains […] MENDT buffer (50 mM Mes (pH 6.0; 2-(N-morpholino)ethanesulfonic acid), 1 mM EDTA, 1 mM dithiothreitol, 200 mM NaCl, 0.1% Triton X100); 2, 3, or 6 mM N-acenyl-L-arginyl-L-alanyl-L-seryl-L-glutaminyl-L-asparaginyl-L-tyrosyl-L-prolyl-L-valyl-L-valinamide (Ac-Arg-Ala-Ser-Gln-Asn-Tyr-Pro-Val-Val-[…]NH2; Km =7 mM); and micromolar and sub-micromolar concentrations of synthetic compounds. Following incubation at 37° C. for several min, the reaction is initiated with purified 0.01-1 mg HIV protease. Reaction mixtures (37° C.) are quenched after 10-20 min with an equal volume of cold 0.6N trichloroacetic acid, and, following centrifugation to remove precipitated material, peptidolysis products are analyzed by reverse phase HPLC (Beckman Ultrasphere ODS, 4.5 mm×[…]; mobile phase; 5-20% acetonitrile/H2 O--0.1% TFA (15 min), 20% acetonitrile/H2 O--0.1% TFA (5 min) at 1.5 mL/min, detection at 220 nm. The elution positions of Ac-Arg-Ala-Ser-Gln-Asn-Tyr-Pro-Val-Val-NH2 (17-18 min) and Ac-Arg-Ala-Ser-Gln-Asn-Tyr (10-11 min) are confirmed with authentic material. Initial rates of Ac-Arg-Ala-Ser-Gln-Asn-Tyr formation are determined from integration of these peaks, and typically, the inhibitory properties of the synthetic compounds are determined from slope/intercept analysis of a plot of 1/v vs. [inhibitor] (Dixon analysis). Ki values resulting from this type of primary analysis are accurate for competitive inhibitors only, and under conditions in which the Michaelis constant of the substrate used is well determined.
Work on `COC(=O)[C@@H](NC(=O)[C@@H](NC(=O)C(C)N1CCC(C(C)NC(=O)[C@H](C)N)=CC(Cc2ccccc2)C1=O)C(C)C)C(C)C` (stereo partly drawn) [Example 1, 2-[3-benzyl-5-(1-alanylamino-ethyl)-2,3,6,7-tetrahydro-1H-2-oxo-azepin-1-yl]-1-oxo-propyl-valinyl-valine methyl ester] yielded a Ki of 100 µM.
For `COC(=O)[C@@H](NC(=O)[C@@H](NC(=O)C(C)N1CCC(C(C)NC(=O)[C@@H](N)Cc2ccccc2)=CC(Cc2ccccc2)C1)C(C)C)C(C)C` (stereo partly drawn) [Example 3, 2-[3-benzyl-5-(1-(phenylalanyl)amino-ethyl)-2,3,6,7-tetrahydro-1H-azepin-1-yl]-1-oxo-propyl-valinyl-valine methyl ester], the Ki was 3.6 µM.
In the case of `COC(=O)[C@@H](NC(=O)[C@@H](NC(=O)C(C)N1CCC(C(C)NC(=O)[C@H](C)N)=CC(Cc2ccccc2)C1)C(C)C)C(C)C` (stereo partly drawn) [Example 2, 2-[3-benzyl-5-(1-alanylamino-ethyl)-2,3,6,7-tetrahydro-1H-azepin-1-yl]-1-oxo-propyl-valinyl-valine methyl ester], the Ki is reported as 0.6 µM.
